# Source: EP0385712B1, “A peptide for use in the manufacture of a composition for prevention or treatment of a condition susceptible to treatment with a platelet aggregation inhibition agent” (ASAHI KASEI KOGYO KABUSHIKI KAISHA, priority 1989, dated 1994)
# Positions of bridges follow the written chain, without caps; N, C: chain ends. Residues, ends and D or L forms follow the SMILES beside them.
# Test system: rat, Wister strain
# Assay: Acute toxicity in rat, intravenous
# Format: in vivo
# Conditions: body weight 80 - 90 g, 80 µg/kg intravenously in the tail, solution in 0.1 M aqueous sodium acetate containing 0.1 % bovine serum albumin
# Protocol: A solution of each of the following compounds in 0.1 M aqueous sodium acetate containing 0.1 % bovine serum albumin is administered into a rat, Wister strain, body weight 80 - 90 g, 80 µg/kg, intraveneously in the tail.
row,Molecule,Acute toxicity (deaths)
1,CC(C)C[C@H](NC(=O)[C@H](CCCNC(=N)N)NC(=O)[C@H](Cc1c[nH]cn1)NC(=O)[C@@H](NC(=O)[C@@H](NC(=O)[C@@H]1CSSC[C@H](NC(=O)[C@H](C)N)C(=O)N[C@@H](CC(=O)O)C(=O)N[C@@H]([C@@H](C)O)C(=O)N[C@@H](C)C(=O)N[C@@H]([C@@H](C)O)C(=O)N1)C(C)C)[C@@H](C)O)C(=O)N[C@@H](C)C(=O)N[C@@H](CCC(=O)O)C(=O)N[C@@H](CC(C)C)C(=O)N[C@@H](CC(C)C)C(=O)N[C@@H](CO)C(=O)N[C@@H](CCCNC(=N)N)C(=O)N[C@@H](CO)C(=O)NCC(=O)NCC(=O)N[C@H](C(=O)N[C@H](C(=O)N[C@@H](CCCCN)C(=O)N[C@@H](CC(N)=O)C(=O)N[C@@H](CC(N)=O)C(=O)N[C@@H](Cc1ccccc1)C(=O)N[C@H](C(=O)N1CCC[C@H]1C(=O)N[C@H](C(=O)N[C@@H](CC(N)=O)C(=O)N[C@H](C(=O)NCC(=O)N[C@@H](CO)C(=O)N[C@@H](CCCCN)C(=O)N[C@@H](C)C(=O)N[C@@H](Cc1ccccc1)C(N)=O)C(C)C)[C@@H](C)O)C(C)C)C(C)C)C(C)C [[Glu¹⁴ ] -h -α-CGRP] (H-ACDTATCVTHRLAELLSRSGGVVKNNFVPTNVGSKAF-NH2; disulfide 2-7),No deaths were observed
2,"desalanyl-deamino- [Asn³, Glu¹⁴, Phe¹⁵] -h -α-CGRP",No deaths were observed
3,desalanyl-deamino-h-α-CGRP,No deaths were observed
4,desalanyl-deamino-c-CGRP,No deaths were observed
5,"desalanyl-deamino- [Asn³, Phe¹⁵, Gly²³] -h -α-CGRP",No deaths were observed
